Data set [1] deals with Human immunodeficiency virus 1. Nature of the data set: Fold resistance, ratio of EC50 for HIV1 3B harboring protease I84V/L90M mutant infected in human MT2 cells to EC50 for wild type HIV1 3B infected in human MT2 cells. The data set is classed as functional.
A further data set concerns the target Protease (Human immunodeficiency virus 1, UniProt Q9YQ12). The data set can be described thus: Inhibition of HIV1 protease using fluorogenic hexapeptide substrate (2-aminobenzoyl)Thr-Ile-Nle-(p-nitro)Phe-Gln-Arg by fluorimeter.
Data set [2] deals with Human immunodeficiency virus 1. Nature of the data set: Antiviral activity against wild type HIV1 3B infected in human MT2 cells assessed as virus-induced cytopathic effect after 5 days by XTT assay. The data set is classed as functional, organism-based. The conditions noted are these: Human immunodeficiency virus 1, 3B, MT2, 120 h.
Data set [3] deals with Human immunodeficiency virus 1. The data set can be described thus: Fold resistance, ratio of EC50 for HIV1 3B harboring protease M46I/I50V mutant infected in human MT2 cells to EC50 for wild type HIV1 3B infected in human MT2 cells. The data set is classed as functional.
Data set [4] can be described thus: Cytotoxicity against human MT2 cells assessed as reduction in cell viability after 5 days by XTT assay. The data set is classed as cell-based. In general terms: Tetrazolium dyes change colour on reduction, which living cells bring about.
Data set [5] in a line: Cytotoxicity against human HepG2 cells assessed as reduction in cell viability after 5 days by XTT assay. The data set is classed as cell-based.
The test system of data set [6] is Human immunodeficiency virus 1. The data set can be described thus: Antiviral activity against wild type HIV1 3B infected in human MT2 cells assessed as virus-induced cytopathic effect after 5 days by XTT assay relative to in the presence of 50% pooled human serum. The data set is classed as functional. (In general: Damage to the host cells serves as the signal in cytopathic effect assays.)

Data set [7] relates to Human immunodeficiency virus 1. Nature of the data set: Fold resistance, ratio of EC50 for HIV1 3B harboring protease G48V/I54V/V82S mutant infected in human MT2 cells to EC50 for wild type HIV1 3B infected in human MT2 cells. The data set is classed as functional.
Data set [8] deals with Human immunodeficiency virus 1. The data set can be described thus: Fold resistance, ratio of EC50 for HIV1 3B harboring protease M46I/V82T/L90M mutant infected in human MT2 cells to EC50 for wild type HIV1 3B infected in human MT2 cells. The data set is classed as functional.
For data set [9], the system named is Human immunodeficiency virus 1. Nature of the data set: Fold resistance, ratio of EC50 for HIV1 3B harboring protease D30N/54V/L90M mutant infected in human MT2 cells to EC50 for wild type HIV1 3B infected in human MT2 cells. The data set is classed as functional.
In data set [10] the test system is Human immunodeficiency virus 1. Nature of the data set: Fold resistance, ratio of EC50 for HIV1 3B harboring protease G48V/V82A/I84V/L90M mutant infected in human MT2 cells to EC50 for wild type HIV1 3B infected in human MT2 cells. The data set is classed as functional.
A short description of data set [11]: Intrinsic clearance in human liver microsomes. The data set is classed as ADME. The conditions noted are these: read-out: CLH. Background: Microsomes from liver hold many membrane-bound enzymes, among them those of drug oxidation.
The nature of data set [12]: (§1) Intrinsic clearance in human liver microsomes in presence of 1 uM RTV. The data set is classed as ADME. The note with it: liver microsomes, with RTV 1 uM, read-out: CLH.
The nature of data set [13]: (§2) Intrinsic clearance in human liver microsomes in presence of 1 uM COBI. The conditions noted are these: liver microsomes, with COBI 1 uM, read-out: CLH. The data set is classed as ADME.
Data set [14] concerns Liver microsome. Described as §1. The data set is classed as ADME. The conditions noted are these: microsomes.
The subject of data set [15] is Liver microsome. The data set is described as §2. The data set is classed as ADME. The conditions noted are these: microsomes.
Data set [16] concerns Human immunodeficiency virus 1. Nature of the data set: Antiviral activity against wild type HIV1 3B infected in human MT2 cells assessed as fold resistance after 11 months incubation. The data set is classed as functional.
Data set [17] is described as follows: Clearance in Beagle dog at 2 mg/kg, iv over 30 mins. The data set is classed as ADME, organism-based, Canis lupus familiaris. The conditions noted are these: in vivo. Also noted: dose 2 mg/kg, route intravenous.
Data set [18] can be described thus: Oral bioavailability in Beagle dog at 10 mg/kg. The data set is classed as ADME, organism-based, Canis lupus familiaris. The conditions noted are these: in vivo.
Data set [19] in a line: Oral bioavailability in Beagle dog at 10 mg/kg in presence of 10 mg/kg COBI. The data set is classed as ADME, organism-based, Canis lupus familiaris. The conditions noted are these: in vivo.

Structures are written as SMILES.

Chain of Protease (Q9YQ12 whole entry): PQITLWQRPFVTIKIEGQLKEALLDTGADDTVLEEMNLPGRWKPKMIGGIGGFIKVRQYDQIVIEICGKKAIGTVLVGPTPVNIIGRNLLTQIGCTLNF

As a reminder, the Ki is a measure of affinity in units of concentration, obtained from inhibition or displacement. As usually defined, the EC50 is the midpoint of the concentration-response curve. Take `COc1ccc(S(=O)(=O)N(CC(C)C)C[C@@H](O)[C@H](Cc2ccc(OCP(=O)(OC)OC)cc2)NC(=O)O[C@H]2CO[C@H]3OCC[C@H]32)cc1`: the “Ratio EC50” value in data set [1] is listed as 0.3. Further, the Ki on Protease worked out at 0.0181 nM. Moreover, the EC50 in data set [2] is 18.8 nM.
As to `CCOP(=O)(OCC)c1ccc(C[C@H](NC(=O)O[C@H]2CO[C@H]3OCC[C@H]32)[C@H](O)CN(CC(C)C)S(=O)(=O)c2ccc(OC)cc2)cc1`, the “Ratio EC50” value in data set [1] is 0.5; in data set [3], 4.5. This compound also registered an inhibition constant Ki at Protease of 0.0012 nM. For the same compound, the EC50 in data set [2] came out at 7.5 nM.
What is called CC50 is the concentration at which the toxic effect on the cells reaches its halfway point. Take `CC(C)(C)NC(=O)[C@@H]1C[C@@H]2CCCC[C@@H]2CN1C[C@@H](O)[C@H](Cc1ccccc1)NC(=O)[C@H](CC(N)=O)NC(=O)c1ccc2ccccc2n1`: the CC50 at 120 h came to 32300 nM in data set [4] and 12400 nM in data set [5]. Moreover, in [2], the EC50 was 13.6 nM.
For the compound `Cc1c(O)cccc1C(=O)N[C@@H](CSc1ccccc1)[C@H](O)CN1C[C@H]2CCCC[C@H]2C[C@H]1C(=O)NC(C)(C)C`, the “Ratio EC50” value in data set [1] is recorded as above 92; in [6], 19.2; in data set [3] it was 16.5; in data set [7] it was 25.4; in data set [8], 26; in data set [9], above 68. In data set [10], the “Ratio EC50” value was found to be 30.6. Besides, the CC50 at 120 h in data set [4] turned out to be 19100 nM; in [5], 7400 nM. At Protease, this compound had a Ki of 0.732 nM. Besides, in [2], the EC50 came out at 4.9 nM.
`CC(C)CN(C[C@@H](O)[C@H](Cc1ccccc1)NC(=O)O[C@H]1CO[C@H]2OCC[C@H]21)S(=O)(=O)c1ccc(N)cc1`: the CC50 at 120 h was above 100000 nM in data set [4] and 95500 nM in data set [5]. Also, the microsomal CLint is 30.9 µL/min/mg in data set [11], 1.6 µL/min/mg in data set [12] and 0.9 µL/min/mg in data set [13]. Also, the EC50 in data set [2] amounted to 2.3 nM.
With `Cc1cccc(C)c1OCC(=O)N[C@@H](Cc1ccccc1)[C@@H](O)C[C@H](Cc1ccccc1)NC(=O)[C@H](C(C)C)N1CCCNC1=O` [LOPINAVIR], the CC50 at 120 h turned out to be 67900 nM in data set [4] and 27800 nM in data set [5]. Moreover, the microsomal CLint in [11] amounted to 544 µL/min/mg; in data set [12], 1.6 µL/min/mg; in data set [13], 2.7 µL/min/mg. For the same compound, the EC50 in data set [2] worked out at 5.6 nM.
`COC(=O)N[C@H](C(=O)N[C@@H](Cc1ccccc1)[C@@H](O)CN(Cc1ccc(-c2ccccn2)cc1)NC(=O)[C@@H](NC(=O)OC)C(C)(C)C)C(C)(C)C` [ATAZANAVIR]: the “Ratio EC50” value is given as above 100 in data set [1]; 2.4 in data set [6]; 1.9 in [3]; 127 in data set [7]; 43.9 in data set [8]; 141 in data set [9]. In addition, the “Ratio EC50” value in data set [10] is 102. The CC50 at 120 h stood at 79800 nM in data set [4] and 26500 nM in [5]. Moreover, in data set [11], the microsomal CLint worked out at 23 µL/min/mg. The CLH with Liver microsome [14] was 1.4 µL/min/mg; in the data set with Liver microsome [15], 0.9 µL/min/mg. Besides, affinity at Protease was put at a Ki of 0.0479 nM. Also, the EC50 in [2] was found to be 2.2 nM.
Take `COC(=O)c1ccc(C[C@H](NC(=O)O[C@H]2CO[C@H]3OCC[C@H]32)[C@H](O)CN(CC(C)C)S(=O)(=O)c2ccc(OC)cc2)cc1`: the figures for the “Ratio EC50” value in [1] and in data set [3] were 1.2 and 11, respectively. Besides, the Ki at Protease was determined as 0.0054 nM. In addition, the concentration giving a half-maximal response (EC50) in [2] was determined as 0.3 nM.
For the compound `COc1ccc(S(=O)(=O)N(CC(C)C)C[C@@H](O)[C@H](Cc2ccccc2)NC(=O)O[C@H]2CO[C@H]3OCC[C@H]32)cc1`, the EC50 in [2] was found to be 0.35 nM.
Turning to `CC(C)CN(C[C@@H](O)[C@H](Cc1ccccc1)NC(=O)O[C@H]1CCOC1)S(=O)(=O)c1ccc(N)cc1`, the “Ratio EC50” value in data set [1] was 16.3; in data set [3] it was 159; in data set [7], 0.9; in data set [8], 5.9; in data set [9], 0.8; in [10], 20. Moreover, the CC50 at 120 h in data set [4] was above 100000 nM; in data set [5] it was 98400 nM. The same compound gave a Ki at Protease of 0.345 nM. For the same compound, the EC50 in data set [2] is 24 nM.
As for `CC(C)(C)NC(=O)[C@@H]1CN(Cc2cccnc2)CCN1C[C@@H](O)C[C@@H](Cc1ccccc1)C(=O)N[C@H]1c2ccccc2C[C@H]1O`, the CC50 at 120 h was above 100000 nM in [4] and 74700 nM in [5]. For the same compound, the EC50 in data set [2] worked out at 12.4 nM.
In the case of `COc1ccc(S(=O)(=O)N(CC(C)C)C[C@@H](O)[C@H](Cc2ccc(OCP(=O)(OC(C)C)OC(C)C)cc2)NC(=O)O[C@H]2CO[C@H]3OCC[C@H]32)cc1`, the “Ratio EC50” value in data set [1] is 1.3; in [6], 3.6; in [3], 6. Further, the Ki at Protease was found to be 0.0057 nM. Further, the EC50 in data set [2] is 1.9 nM.
Taken in the same sequence, the figures for `CCOP(=O)(CCc1ccc(C[C@H](NC(=O)O[C@H]2CO[C@H]3OCC[C@H]32)[C@H](O)CN(CC(C)C)S(=O)(=O)c2ccc(OC)cc2)cc1)OCC` were 0.4, 2.6, 3.1, 0.0091 nM and 2.1 nM.
By clearance is commonly meant the volume of plasma or blood freed of the substance per unit of time. Lower therefore signals a low capacity for elimination. A word on the bioavailability: it is dose-corrected exposure relative to a reference, in per cent. For `CCOP(=O)(COc1ccc(C[C@H](NC(=O)O[C@H]2CO[C@H]3OCC[C@H]32)[C@H](O)CN(CC(C)C)S(=O)(=O)c2ccc(OC)cc2)cc1)OCC`, the “Ratio EC50” value was determined as 0.7 in data set [1]; 2.7 in data set [6]; 2.4 in [3]; 0.1 in [7]; 0.9 in data set [8]; 0.2 in data set [9]. In addition, in [10], the “Ratio EC50” value is given as 0.6. Besides, the “fold change (FC)” value in data set [16] is given as 15. The results for the CC50 at 120 h in data set [4] and in data set [5] were above 100000 nM and 61300 nM, respectively. The clearance in data set [17] is 35.5 mL/min/kg. The figures for the bioavailability in data set [18] and in data set [19] were 6.9% and 100%, respectively. In addition, the values for the microsomal CLint in [11], in [12] and in data set [13] were 9.2 µL/min/mg, 2.6 µL/min/mg and 1 µL/min/mg, respectively. Also, the affinity at Protease corresponds to a Ki of 0.0081 nM. For the same compound, in data set [2], the half-maximal effective concentration (EC50) amounted to 3.5 nM.
For `COc1ccc(S(=O)(=O)N(CC(C)C)C[C@@H](O)[C@H](Cc2ccc(O)cc2)NC(=O)O[C@H]2CO[C@H]3OCC[C@H]32)cc1`, the “Ratio EC50” value in data set [1] came out at 0.8; in [3], 5.1. The compound also had a Ki on Protease of 0.0053 nM. Also, in data set [2], the EC50 came out at 6.9 nM.
On to `CCOP(=O)(Cc1ccc(C[C@H](NC(=O)O[C@H]2CO[C@H]3OCC[C@H]32)[C@H](O)CN(CC(C)C)S(=O)(=O)c2ccc(OC)cc2)cc1)OCC`, for which the entries for the “Ratio EC50” value in data set [1], in data set [6] and in data set [3] were 5.8, 2.4 and 36, respectively. On Protease, the Ki turned out to be 0.0084 nM. The EC50 in data set [2] was 5.9 nM.
As to `COc1ccc(C[C@H](NC(=O)O[C@H]2CO[C@H]3OCC[C@H]32)[C@H](O)CN(CC(C)C)S(=O)(=O)c2ccc(OC)cc2)cc1`, the “Ratio EC50” value in data set [1] is on record as 17; in data set [3], 157. In addition, the EC50 in data set [2] stood at 0.06 nM.
In the case of `CC(C)c1nc(CN(C)C(=O)N[C@H](C(=O)N[C@@H](Cc2ccccc2)C[C@H](O)[C@H](Cc2ccccc2)NC(=O)OCc2cncs2)C(C)C)cs1` [RITONAVIR], the EC50 in data set [2] was 32.2 nM.

The values are drawn from ChEMBL document CHEMBL3217662 (Medchemcomm, 2011).
